The nature of data set [1]: Dispersion experiments in multi-stage liquid impinger (MSLI), fine particle fraction. The following applies: beaker-synthesised powder, 60 L/min, 4 seconds. The format is physicochemical. From the text:
The measurement of particle sizes in vitro allows a simplistic estimation of the aerodynamic particle size distribution. This process utilizes cascade or impactor devices such as the multi-stage liquid impinger (MSLI) (FIG. 7) to provide a breakdown of the particle size distribution through separation and collection of powder of different Da.
The MSLI consists of 5 stages which have been calibrated at 60 L/min to collect powder of a certain Da, known as the cut-off Da:
At flow rates of 60-100 L/min, the particles which have a Da of less than 5 μm are expected to be able to surpass oropharangeal deposition and the filter of the MSLI from equation 3. From the results of the MSLI, the FPF (fine particle fraction) can be calculated, and expressed as two different forms: […]
The recovery was also calculated for each dispersion which represents the mass of powder which was accounted for compared with the mass which was loaded into the capsules (Equation 6).
The equipment used to perform the dispersion experiments was the MSLI, which has been described earlier. […] The supernatant was then collected. • Step 11: All rinsings were collected into separately labeled glass vials and analyzed by UV immediately to minimize the effect of evaporation, which would produce an overestimation of the concentration collected.

Data set [2] is classed as physicochemical. The text has this:
The aim of this experiment was to achieve a suspension containing fine Salbutamol sulfate precipitate. […] Alcohol (ethanol) therefore was considered to be the best choice, considering the safety of the possible solvents. The solubility of a solid is a function of the solid particle size according to Equation 1
where R is the gas constant, T the absolute temperature, S and Sr the solubility of large solid particles and of particles having small radius r respectively, and M, σ, and d are the molecular weight, surface tension, and density of the solid respectively. It will be appreciated from Eq. 1 that the solubility of a solid will increase as the particle size decreases. […] Consequently, when one considers the yield of the process, alcohol no longer appears suitable. […] Further, IPA is a commonly used organic solvent.

For data set [3] the following is noted: British Pharmacopoeia; cited from earlier work.

As to Salbutamol sulfate, in data set [1], the “reduction in FPF(emitted), Rotahaler vs Aeroliser” value was about 30% and the “reduction in FPF(total), Rotahaler vs Aeroliser” value is listed as about 20%. Besides, in data set [2], the “solubility in IPA” value is listed as “somewhat lower than in alcohol”. In data set [3], the solubility in alcohol result is on record as “slightly soluble”, the solubility in ether result was “slightly soluble”, the “solubility in methylene chloride” value is recorded as “very slightly soluble” and the solubility in water entry is given as “freely soluble”.

`CC(C)(C)NCC(O)c1ccc(O)c(CO)c1` (stereo not shown) [Salbutamol base]: in data set [3], the solubility in alcohol result is listed as “soluble”, the solubility in ether entry is “slightly soluble” and the solubility in water entry is listed as “sparingly soluble”.

The record behind these values is patent US20090186088A1, “INHALABLE DRUG” (NanoMaterials Technology Pte Ltd, priority 2005, published 2009).
